The values that follow come from patent US9043995B2, “Transgenic fish and uses thereof” (CITY UNIVERSITY OF HONG KONG, priority 2010, dated 2015).

Test [1] concerns transgenic brackish medaka larvae (omChgH promoter-EGFP). Kind of test: Estrogen-like activity: induced liver GFP signal in omChgH promoter-EGFP transgenic brackish medaka fish exposed to test solution. The format is in vivo, Oryzias melastigma. Conditions: for induction of GFP expression in the liver, compound alone: transgenic O. melastigma fish/larvae; for GFP signal in the liver: phytoestrogens separately, high concentrations, 48 hours; for induction of liver GFP expression: transgenic brackish medaka larvae, at nM level. The method, then:
A generalized exposure regimen is established in the present art. FIG. 4 presents an example of using transgenic fish larvae to analyze the estrogen-like activity of a test solution. Exposure of transgenic brackish medaka fish (preferably yolk-sac larvae fish) to test solution (containing estrogen or estrogenic substances) is performed at 28° C. The exposure usually takes 24-48 hours. After exposure, the fish will be deposited on the inner side of a petri-dish cover with a small drop of test solution left. The induced EGFP expression in the fish liver will be observed under fluorescence microscope. Yolk-sac larvae are small, exposure can be carried out in utensils like 96-well plate, 24-well plate, petri-dish and so on to save test reagents. Additionally, newly hatched larvae are the most transparent stage, and the transparence can keep up to 15 days after hatch. After 15 days, the larvae will be gradually less transparent due to the development of muscle. The transgenic fish larvae of 1 to 15 days after hatch have similar estrogen sensitivity (FIG. 5).
(§1) In response to different concentrations of estrogen or estrogen-like chemical substances, transgenic fish expresses varying quantity of EGFP protein which is presented as varying GFP signal intensity under fluorescence microscope. […] To quantify the estrogen-like activity of test solution, fluorescent image of fish liver is recorded using a camera connected with the fluorescence microscope. Liver GFP signal intensity can then be measured using some image analysis software such as Metamorph (Universal Imaging). To reduce the interference of fish autofluorescence, only fish liver area was selected for the analysis. The average signal intensity of the manually marked area calculated using the same software was regarded as GFP signal intensity. Fish liver photos recorded using the same image parameter setting can be compared directly using GFP signal intensity, those photos recorded using varying image parameter settings can also be compared as long as each group contain a common reference control.
Estrone (E1), 17β-estradiol (E2) and estriol (E3) are natural steroid estrogens. […] Of them, E2 has been intensively studied, and is commonly used as a standard estrogen to evaluate the estrogen-like activity of testing reagents. Using transgenic larvae of present invention, induced GFP signal by E2 can usually be observed within 24 hours, and the GFP signal increases with the increasing concentration of E2. At higher E2 concentrations (e.g., 102 or 1020 nM), induced GFP signal intensity can even be observed within 4 hours after onset of exposure, and the signal increases with exposure time (FIG. 8), and reaches saturation within 24 hours. At low E2 concentrations, however, it will take longer for the induced GFP signal to accumulate to become detectable. Thus, by exposing transgenic brackish medaka fish larvae to different concentrations of E2 for a period of time (such as 24 hours), imaging the GFP expressing liver, and then measuring the induced liver GFP signal intensity using image analysis software, a standard curve correlating GFP signal intensity and E2 concentration can be established (GFP-E2 standard curve; FIG. 9). Using the same regimen, and also include one known E2 concentration exposure as reference, the estrogen-like activity of test reagents can then be evaluated as estrogen potency equivalent by referring the induced liver GFP signal to that of GFP-E2 standard curve.

Test [2] relates to transgenic medaka fish larvae (omChgH promoter-EGFP). Kind of test: Binary exposure with E2: change of the liver GFP signal induced by 17β-estradiol in transgenic medaka larvae (agonism / anti-estrogen activity). Conditions: for effect on estrogenic activity / liver GFP signal induced by 17β-estradiol: binary exposure with E2. The format is in vivo, Oryzias melastigma. The method, then:
Another method of the present invention relates to a method of screening for a compound having anti-estrogenic activity.
as §1
6-acetyl-1,1,2,4,4,7-hexamethyltetraline (AHTN) is one of the most widely used polycyclic musk. This compound is used as a fragrance ingredient in cosmetics and household cleaning products. According to HERA Risk Assessment reports in 2004, AHTN is produced in an annual volume of 1000 to 5000 tons in one Netherland and UK plant, respectively. According to HERA Risk Assessments, AHTN is not toxic to humans basing on present daily consumption. However, the ubiquitous distribution, high accumulation in environment (A Peck et al. Environ Sci Technol. 40: 5629-5635 (2006)), and bioaccumulation in organisms including human beings (H Nakata et al. Environ Sci Technol. 41: 2216-2222 (2007); S Lignell et al. Environ Sci Technol. 42: 6743-6748 (2008)) raise the concern of scientists. AHTN is found to be estrogen antagonist (RHMM Schreurs et al. Environ Sci Technol. 38: 997-1002 (2004); RHMM Schreurs et al. Toxicol Sci. 83: 264-272 (2005)). The estrogen antagonist activity of AHTN can also be very easily evaluated using transgenic medaka fish of present invention. Just expose transgenic medaka fish larvae to E2 (e.g. 0.04 μM) or E2 incombination with AHTN (e.g. 5 μM) for a period of time (e.g. 24 hours), and then measure the GFP signal intensity induced by E2 with/without the presence of AHTN.

Entries after “also recorded” stand apart in the source; their conditions may differ.

As to `CC(C)(c1ccc(O)cc1)c1ccc(O)cc1` [BPA, bisphenol A], the “induction of GFP expression in the liver, compound alone” value (from here on “induction of GFP expression”) in test [1] was “can also induce GFP expression”.
With `O=c1c(-c2ccc(O)cc2)coc2cc(O[C@@H]3O[C@H](CO)[C@@H](O)[C@H](O)[C@H]3O)ccc12` [daidzin], the “GFP signal in the liver” value in test [1] is given as “weak GFP signal”.
Same read-out and setting: as for `O=c1c(-c2ccc(O)cc2)coc2cc(O)cc(O)c12` [genistein], the entry is “weak GFP signal”.
Consider `CCCCC(CC)COC(=O)c1ccc(N(C)C)cc1` (stereo not drawn) [OD-PABA, octyl dimethyl PABA], for which the “effect on estrogenic activity / liver GFP signal induced by 17β-estradiol” value in test [2] is given as “estrogen agonism”. In addition, the “induction of GFP expression” value in test [1] is reported as “cannot induce the GFP expression”.
As to `C[C@]12CC[C@@H]3c4ccc(O)cc4CC[C@H]3[C@@H]1C[C@@H](O)[C@@H]2O` [E3, estriol, reference compound], the “induction of liver GFP expression” value in test [1] was “can induce liver GFP expression”.
`O=c1c(-c2ccc(O)cc2)coc2cc(O)ccc12` [daidzein]: the “GFP signal in the liver” value in test [1] is given as “weak GFP signal”.
Still for that read-out and setting: as for `O=c1c(-c2ccc(O)cc2)coc2cc(O[C@@H]3O[C@H](CO)[C@@H](O)[C@H](O)[C@H]3O)cc(O)c12` [genistin], the entry is “weak GFP signal”.
Regarding `COc1ccc(C(=O)CC(=O)c2ccc(C(C)(C)C)cc2)cc1` [BMDM, 4-tert-Butyl-4′-methoxydibenzoylmethane], the “effect on estrogenic activity / liver GFP signal induced by 17β-estradiol” value in test [2] is given as “estrogen agonism”. For the same molecule, the “induction of GFP expression” value in test [1] is on record as “cannot induce the GFP expression”.
As for `CC1CC(OC(=O)c2ccccc2O)CC(C)(C)C1` (stereo not drawn) [HMS, homosalate], in test [2], the “effect on estrogenic activity / liver GFP signal induced by 17β-estradiol” value is on record as “can enhance the estrogenic activity of 17β-estradiol in a dose-dependent manner; also recorded: increased”. Also, the “induction of GFP expression” value in test [1] was “cannot induce the GFP expression”.
Take `C#C[C@]1(O)CC[C@H]2[C@@H]3CCc4cc(OC)ccc4[C@H]3CC[C@@]21C` [ethinylestradiol 3-methyl ether, reference compound]: the “induced liver GFP signal compared with E2” value in test [1] (same concentration (nM), same period (24 hours)) is “stronger than that induced by E2”.
On to `CCCCCCCCCc1ccc(O)cc1` [NP, 4-nonyphenol], for which the “induction of GFP expression” value in test [1] is recorded as “can also induce GFP expression”.
On to `C[C@]12CC[C@@H]3c4ccc(O)cc4CC[C@H]3[C@@H]1CC[C@@H]2O` [E2, 17β-estradiol, reference compound], for which, in test [1] (102 or 1020 nM, after onset of exposure), the “time until induced GFP signal can be observed, higher E2 concentrations” value was at most 4 h. The “induced expression of transgene GFP in the liver” value in test [1] (embryo, larva and male fish) is “can also be induced”. Further, the “time until GFP signal reaches saturation” value in test [1] (higher E2 concentrations (102 or 1020 nM)) is at most 24 h. Moreover, the “induction of liver GFP expression” value in test [1] was “can induce liver GFP expression”. In test [1] (transgenic larvae, E2 exposure), the “time until induced GFP signal can be observed” value is at most 24 h.
`CC(=O)c1cc2c(cc1C)C(C)(C)C(C)CC2(C)C` (stereo not drawn) [AHTN, 6-acetyl-1,1,2,4,4,7-hexamethyltetraline]: in test [2] (E2 0.04 μM, AHTN 5 μM, 24 hours), the “GFP signal induced by E2 in the presence of AHTN” value is “weaker GFP signal”. For the same molecule, the “effect on estrogenic activity / liver GFP signal induced by 17β-estradiol” value in test [2] was “decreased”.
